Measurements: patent publication EP2322514A1, “Homoglutamic acid and glutamic acid derivatives” (Bayer Schering Pharma Aktiengesellschaft, priority 2009, dated 2011)

System: NSCLC tumor cells (NCl-H460)
Test: cell competition experiment: uptake of 3H-glutamic acid into tumor cells
Assay type: cell-based
Details: NCI-H460 cells, 10 min incubation with 1 µci 3H-glutamic acid in PBS-buffer, test compound 1 mM (excess)
Description: Figure 1: Examination of biological activity of (2S)-2-Amino-7-fluoro-4-phosphonoheptanoic acid in a cell competition experiment. (NCI-H460 cells, 10 min incubation with 1 µci 3H-glutamic acid in PBS-buffer, concentration of (2S)-2-Amino-7-fluoro-4-phosphonoheptanoic acid 1 mM).
The ability of compounds from the present invention to compete with uptake of glutamic acid into tumor cells was examined. Therefore, NSCLC tumor cells (NCl-H460) were co-incubated with 3H-labeled glutamic acid and (2S)-2-Amino-7-fluoro-4-phosphonoheptanoic acid. This compound was used in excess (1 mM) to the tracer 3H-glutamic acid.

Structure (SMILES): N[C@@H](CC(CCCF)P(=O)(O)O)C(=O)O (stereo partly drawn) [(2S)-2-Amino-7-fluoro-4-phosphonoheptanoic acid]
- uptake of 3H-glutamic acid: could be decreased
